# Test results: patent US20100267561A1, “HERBICIDAL PYRIDAZINONE DERIVATIVES” (priority 2007, published 2010)
# What was measured:
# Format in all cases: in vivo
# [1] = test system: canola (Brassica rapa); test: Test C pre-/postemergence plant response; settings: scale 0 to 100, 0 no effect, 100 complete control
# Outline: (§1)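 Ratings ran from 0 (no effect) to 100 (complete control) and were made visually against untreated controls 15–25 days after treatment in a controlled growth environment. Application was preemergence and, for some chemicals, postemergence at the 1- to 4-leaf stage (2–18 cm). Formulation was a non-phytotoxic solvent mixture with surfactant.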
# [2] = test system: spring wheat (Triticum aestivum); test: Test C pre-/postemergence plant response
# Outline: as §1
# [3] = test system: pigweed (Amaranthus retroflexus); test: Test C pre-/postemergence plant response
# Outline: as §1
# [4] = test system: bermudagrass (Cynodon dactylon); test: Test E pre-/postemergence plant response; settings: scale 0 to 100
# Outline: (§2)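 Plants scored visually versus controls on a 0–100 scale (100 = complete control) 14 to 21 days after treatment in the greenhouse. Test chemicals in a surfactant-containing non-phytotoxic solvent were applied to soil preemergence or to 1- to 4-leaf plants, 2–18 cm tall.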
# [5] = test system: goosegrass (Eleusine indica); test: Test E pre-/postemergence plant response; settings: scale 0 to 100
# Outline: as §2
# [6] = test system: itchgrass (Rottboellia cochinchinensis); test: Test E pre-/postemergence plant response; settings: scale 0 to 100
# Outline: as §2
# [7] = test system: annual bluegrass (Poa annua); test: Test E pre-/postemergence plant response; settings: scale 0 to 100
# Outline: as §2
# [8] = test system: black mustard (Brassica nigra); test: Test E pre-/postemergence plant response; settings: scale 0 to 100
# Outline: as §2
# [9] = test system: naked crabgrass (Digitaria nuda); test: Test E pre-/postemergence plant response; settings: scale 0 to 100
# Outline: as §2
# [10] = test system: southern (S.) sandbur (Cenchrus echinatus); test: Test E pre-/postemergence plant response; settings: scale 0 to 100
# Outline: as §2
# [11] = test system: common groundsel (Senecio vulgaris); test: Test E pre-/postemergence plant response; settings: scale 0 to 100
# Outline: as §2
# [12] = test system: common purslane (Portulaca oleracea); test: Test E pre-/postemergence plant response; settings: scale 0 to 100
# Outline: as §2
# [13] = test system: purple nutsedge (Cyperus rotundus); test: Test E pre-/postemergence plant response; settings: scale 0 to 100
# Outline: as §2
# [14] = Postemergence, 8 g ai/ha, scale 0 to 100, 0 no effect, 100 complete control
# [15] = Postemergence, 16 g ai/ha, scale 0 to 100, 0 no effect, 100 complete control
# [16] = Postemergence, 31 g ai/ha, scale 0 to 100, 0 no effect, 100 complete control
# [17] = Postemergence, 62 g ai/ha, scale 0 to 100, 0 no effect, 100 complete control
# [18] = Preemergence, 8 g ai/ha, scale 0 to 100 (0 no effect, 100 complete control)
# [19] = Preemergence, 16 g ai/ha, scale 0 to 100 (0 no effect, 100 complete control)
# [20] = Preemergence, 31 g ai/ha, scale 0 to 100 (0 no effect, 100 complete control)
# [21] = Preemergence, 62 g ai/ha, scale 0 to 100, 0 no effect, 100 complete control
structure (smiles),measurement,setting,value
CCOC(=O)Oc1cnn(C)c(=O)c1-n1nc(-c2ccc(Cl)cc2)cc1C [Compound 53],"Plant response rating, Canola","[1]; Postemergence, 8 g ai/ha",0
same,"Plant response rating, Canola","[1]; Postemergence, 16 g ai/ha",0
same,"Plant response rating, Canola","[1]; Postemergence, 31 g ai/ha",0
same,"Plant response rating, Canola","[1]; Postemergence, 62 g ai/ha",0
same,"Plant response rating, Canola","[1]; Preemergence, 62 g ai/ha",0
same,"Plant response rating, Wheat, Spring",[2]; [14],5
same,"Plant response rating, Wheat, Spring",[2]; [15],50
same,"Plant response rating, Wheat, Spring",[2]; [16],80
same,"Plant response rating, Wheat, Spring",[2]; [17],98
same,"Plant response rating, Wheat, Spring",[2]; [18],0
same,"Plant response rating, Wheat, Spring",[2]; [19],20
same,"Plant response rating, Wheat, Spring",[2]; [20],85
same,"Plant response rating, Wheat, Spring",[2]; [21],85
same,"Plant response rating, Pigweed",[3]; [14],0
same,"Plant response rating, Pigweed",[3]; [15],0
same,"Plant response rating, Pigweed",[3]; [16],0
same,"Plant response rating, Pigweed",[3]; [17],0
same,"Plant response rating, Pigweed",[3]; [18],0
same,"Plant response rating, Pigweed",[3]; [19],0
same,"Plant response rating, Pigweed",[3]; [20],0
same,"Plant response rating, Pigweed",[3]; [21],0
same,"Plant response rating, Bermudagrass","[4]; 16 g ai/ha, Preemergence",80
same,"Plant response rating, Bermudagrass","[4]; 31 g ai/ha, Preemergence",98
same,"Plant response rating, Bermudagrass","[4]; 62 g ai/ha, Preemergence",98
same,"Plant response rating, Bermudagrass","[4]; Postemergence, 8 g ai/ha",50
same,"Plant response rating, Bermudagrass","[4]; Postemergence, 16 g ai/ha",70
same,"Plant response rating, Bermudagrass","[4]; Postemergence, 31 g ai/ha",80
same,"Plant response rating, Bermudagrass","[4]; Postemergence, 62 g ai/ha",98
same,"Plant response rating, Goosegrass","[5]; 16 g ai/ha, Preemergence",80
same,"Plant response rating, Goosegrass","[5]; 31 g ai/ha, Preemergence",100
same,"Plant response rating, Goosegrass","[5]; 62 g ai/ha, Preemergence",100
same,"Plant response rating, Goosegrass","[5]; Postemergence, 8 g ai/ha",20
same,"Plant response rating, Goosegrass","[5]; Postemergence, 16 g ai/ha",65
same,"Plant response rating, Goosegrass","[5]; Postemergence, 31 g ai/ha",80
same,"Plant response rating, Goosegrass","[5]; Postemergence, 62 g ai/ha",95
same,"Plant response rating, Itchgrass","[6]; 16 g ai/ha, Preemergence",75
same,"Plant response rating, Itchgrass","[6]; 31 g ai/ha, Preemergence",85
same,"Plant response rating, Itchgrass","[6]; 62 g ai/ha, Preemergence",90
same,"Plant response rating, Itchgrass","[6]; Postemergence, 8 g ai/ha",70
same,"Plant response rating, Itchgrass","[6]; Postemergence, 16 g ai/ha",90
same,"Plant response rating, Itchgrass","[6]; Postemergence, 31 g ai/ha",95
same,"Plant response rating, Itchgrass","[6]; Postemergence, 62 g ai/ha",98
same,"Plant response rating, Bluegrass","[7]; 16 g ai/ha, Preemergence",0
same,"Plant response rating, Bluegrass","[7]; 31 g ai/ha, Preemergence",0
same,"Plant response rating, Bluegrass","[7]; 62 g ai/ha, Preemergence",60
same,"Plant response rating, Bluegrass","[7]; Postemergence, 8 g ai/ha",0
same,"Plant response rating, Bluegrass","[7]; Postemergence, 16 g ai/ha",0
same,"Plant response rating, Bluegrass","[7]; Postemergence, 31 g ai/ha",0
same,"Plant response rating, Bluegrass","[7]; Postemergence, 62 g ai/ha",0
same,"Plant response rating, Mustard, Black","[8]; 16 g ai/ha, Preemergence",0
same,"Plant response rating, Mustard, Black","[8]; 31 g ai/ha, Preemergence",0
same,"Plant response rating, Mustard, Black","[8]; 62 g ai/ha, Preemergence",25
same,"Plant response rating, Mustard, Black","[8]; Postemergence, 8 g ai/ha",0
same,"Plant response rating, Mustard, Black","[8]; Postemergence, 16 g ai/ha",0
same,"Plant response rating, Mustard, Black","[8]; Postemergence, 31 g ai/ha",0
same,"Plant response rating, Mustard, Black","[8]; Postemergence, 62 g ai/ha",0
same,"Plant response rating, Crabgrass, Naked","[9]; 16 g ai/ha, Preemergence",80
same,"Plant response rating, Crabgrass, Naked","[9]; 31 g ai/ha, Preemergence",100
same,"Plant response rating, Crabgrass, Naked","[9]; 62 g ai/ha, Preemergence",100
same,"Plant response rating, Crabgrass, Naked","[9]; Postemergence, 8 g ai/ha",30
same,"Plant response rating, Crabgrass, Naked","[9]; Postemergence, 16 g ai/ha",80
same,"Plant response rating, Crabgrass, Naked","[9]; Postemergence, 31 g ai/ha",98
same,"Plant response rating, Crabgrass, Naked","[9]; Postemergence, 62 g ai/ha",100
same,"Plant response rating, Sandbur, S.","[10]; 16 g ai/ha, Preemergence",30
same,"Plant response rating, Sandbur, S.","[10]; 31 g ai/ha, Preemergence",100
same,"Plant response rating, Sandbur, S.","[10]; 62 g ai/ha, Preemergence",100
same,"Plant response rating, Sandbur, S.","[10]; Postemergence, 8 g ai/ha",65
same,"Plant response rating, Sandbur, S.","[10]; Postemergence, 16 g ai/ha",80
same,"Plant response rating, Sandbur, S.","[10]; Postemergence, 31 g ai/ha",95
same,"Plant response rating, Sandbur, S.","[10]; Postemergence, 62 g ai/ha",100
same,"Plant response rating, Groundsel","[11]; 16 g ai/ha, Preemergence",0
same,"Plant response rating, Groundsel","[11]; 31 g ai/ha, Preemergence",0
same,"Plant response rating, Groundsel","[11]; 62 g ai/ha, Preemergence",0
same,"Plant response rating, Groundsel","[11]; Postemergence, 8 g ai/ha",0
same,"Plant response rating, Groundsel","[11]; Postemergence, 16 g ai/ha",0
same,"Plant response rating, Groundsel","[11]; Postemergence, 31 g ai/ha",0
same,"Plant response rating, Groundsel","[11]; Postemergence, 62 g ai/ha",0
same,"Plant response rating, Purslane","[12]; 16 g ai/ha, Preemergence",0
same,"Plant response rating, Purslane","[12]; 31 g ai/ha, Preemergence",0
same,"Plant response rating, Purslane","[12]; 62 g ai/ha, Preemergence",0
same,"Plant response rating, Purslane","[12]; Postemergence, 8 g ai/ha",0
same,"Plant response rating, Purslane","[12]; Postemergence, 16 g ai/ha",0
same,"Plant response rating, Purslane","[12]; Postemergence, 31 g ai/ha",0
same,"Plant response rating, Purslane","[12]; Postemergence, 62 g ai/ha",0
same,"Plant response rating, Nutsedge, Purple","[13]; 16 g ai/ha, Preemergence",0
same,"Plant response rating, Nutsedge, Purple","[13]; 31 g ai/ha, Preemergence",35
same,"Plant response rating, Nutsedge, Purple","[13]; 62 g ai/ha, Preemergence",98
same,"Plant response rating, Nutsedge, Purple","[13]; Postemergence, 8 g ai/ha",0
same,"Plant response rating, Nutsedge, Purple","[13]; Postemergence, 16 g ai/ha",0
same,"Plant response rating, Nutsedge, Purple","[13]; Postemergence, 31 g ai/ha",0
same,"Plant response rating, Nutsedge, Purple","[13]; Postemergence, 62 g ai/ha",0
